Data from PubChem BioAssay (NCI).
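How tested: cells in 96-well plates exposed to compound for 48 hours at five concentrations. The concentration for full growth arrest is given as TGI.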

Experiments:
Experiment in all cases: inhibition of tumour cell growth, NCI panel, 48 h
[1] = test system: 786-0 renal
[2] = test system: A498 renal
[3] = test system: A549 NSCLC
[4] = test system: ACHN renal
[5] = test system: CAKI-1 renal
[6] = test system: CCRF-CEM leukemia
[7] = test system: COLO 205 colon
[8] = test system: DLD-1 colon
[9] = test system: DMS 114 small cell lung
[10] = test system: DMS 273 small cell lung
[11] = test system: EKVX NSCLC
[12] = test system: HCC-2998 colon
[13] = test system: HCT-116 colon
[14] = test system: HCT-15 colon
[15] = test system: HL-60(TB) leukemia
[16] = test system: HOP-18 NSCLC
[17] = test system: HOP-62 NSCLC
[18] = test system: HOP-92 NSCLC
[19] = test system: HT29 colon
[20] = test system: IGROV1 ovarian
[21] = test system: K-562 leukemia
[22] = test system: KM12 colon
[23] = test system: KM20L2 colon
[24] = test system: LOX IMVI melanoma
[25] = test system: LXFL 529 NSCLC
[26] = test system: M14 melanoma
[27] = test system: M19-MEL melanoma
[28] = test system: MALME-3M melanoma
[29] = test system: MOLT-4 leukemia
[30] = test system: NCI-H226 lung
[31] = test system: NCI-H23 lung
[32] = test system: NCI-H460 lung
[33] = test system: NCI-H522 lung
[34] = test system: OVCAR-3 ovarian
[35] = test system: OVCAR-4 ovarian
[36] = test system: OVCAR-5 ovarian
[37] = test system: OVCAR-8 ovarian
[38] = test system: RPMI-8226 leukemia
[39] = test system: RXF 393 renal
[40] = test system: RXF-631 renal
[41] = test system: SF-268 CNS
[42] = test system: SF-295 CNS
[43] = test system: SF-539 CNS
[44] = test system: SK-MEL-2 melanoma
[45] = test system: SK-MEL-28 melanoma
[46] = test system: SK-MEL-5 melanoma
[47] = test system: SK-OV-3 ovarian
[48] = test system: SN12C renal
[49] = test system: SNB-19 CNS
[50] = test system: SNB-75 CNS
[51] = test system: SNB-78 CNS
[52] = test system: SR leukemia
[53] = test system: TK-10 renal
[54] = test system: U251 CNS
[55] = test system: UACC-257 melanoma
[56] = test system: UACC-62 melanoma
[57] = test system: UO-31 renal
[58] = test system: XF 498 CNS

Measured: TGI

CC(C)(C)c1cc(Oc2ccc(C#N)c(C#N)c2)cc(C(C)(C)C)c1
94.6 µM: [24]
27.1 µM: [10]
42.3 µM: [52]
> 100 µM: all other assays above
